Reference: EP0116439A2, “Fatty acid containing hair tonic composition” (priority 1983, dated 1984)

Columns and labels:
male rabbits = assay: fur growth on shorn back of rabbits; format: in vivo; set-up: Difference b, Average: unit not given here; conditions: for Grown fur length Test side a', Average: 0.2% fatty acid solution in 80% aqueous ethanol; for Difference b, Average: test side minus control side, 0.2% fatty acid solution
Procedure: Ten week old male rabbits were shorn on the back. A 0.2% fatty acid solution in 80% aqueous ethanol solution was applied, twice a day, to a half-side of the shorn portion of each rabbit for one week. As a control, a 80% aqueous ethanol solution was also applied, twice a day, to the other half-side of the shorn portion of each rabbit for one week (two week for linoleic acid). The length of the grown fur was measured.

[1] = target: testosterone 5α-reductase; assay: testosterone 5α-reductase inhibitory activity (conversion of labelled testosterone to 5α-dihydrotestosterone); format: biochemical, rats; conditions: microsome from rat prostate gland cells, 25°C, 60 minutes, pH 6.6
Procedure: The Sa-reductase inhibitory activity was determined as follows.
Prostate gland cells of rats were crushed and a specimen of testosterone 5α-reductase was then prepared by separating microsome from the crushed liquid mixture. The conversion of the testosterone to 5α-dihydrotestosterone by the use of the above-prepared enzyme specimen was monitored by radioisotopically labelled testosterone. The reaction mixture was extracted with ethyl acetate and the extract was developed twice by silica gel thin layer chromatography (solvent system, dichloromethane: cyclohexane:acetone = 15:4:1). The amount of 5α-dihydrotestosterone were determined from the intensities of the radioactivity.
A 30 µl amount of a 0.05 M phosphate buffer (pH = 6.6), 10 µl of an enzyme specimen, 8.5 pmol of labelled testosterone, 50 nmol of a reduced form of NADP (nicotinamide adenine dinucleotide phosphate), and 10 µl of a test sample were mixed (final volume = 50 µl). The mixture was included at a temperature of 25°C for 60 minutes.
The reaction was stopped by the addition of 100 ul of ethyl acetate, and the reaction mixture was extracted by vigorous shaking. The extract was developed in the same manner as mentioned above and the intensity of the radioisotope was measured by using a scintillation counter.
The above-mentioned determination was applied to the samples having various concentrations. The 5a--reductase inhibitory activity was obtained as a inhibitory rate (%) or a 50% inhibitory concentration (^IC50).

Structure (SMILES) | IC50 [1] | Grown fur length Test side a', Average (male rabbits; twice a day for one week) | Difference b, Average (male rabbits; twice a day for one week) | Grown fur length Test side a', Average (male rabbits; twice a day, two week) | Difference b, Average (male rabbits; twice a day, two week)
CCCCC/C=C\C/C=C\C/C=C\C/C=C\CCCC(=O)O [Arachidonic acid, arachidonic acid] | 150 µM | 7.561^*2 | 0.78 | – | –
CCCCCCCCCCCC(=O)O [Lauric acid, lauric acid] | 600 µM | 5.667^*2 | 0.776 | – | –
CC/C=C\C/C=C\C/C=C\CCCCCCCC(=O)O [Linolenic acid, linolenic acid] | – | 5.46^*2 | 0.45 | – | –
CCCCCCCCCCCCCC(=O)O [Myristic acid, myristic acid] | 1800 µM | 6.583^*2 | 0.661 | – | –
CCCCCCCC/C=C\CCCCCCCC(=O)O [Oleic Acid, oleic acid] | 320 µM | 6.102^*2 | 0.626 | – | –
CCCCCCCCCCC/C=C\CCCCC(=O)O [Petroselinic acid, petroselinic acid] | 280 µM | 6.66^*2 | 0.50 | – | –
CCCCCCCC(=O)O [n-Caprylic acid, n-caprylic acid] | 1700 µM | 5.38^*2 | 0.32 | – | –

Now from value to compound, other results behind:

IC50 [1] | Structure (SMILES) | Grown fur length Test side a', Average (male rabbits; twice a day for one week) | Difference b, Average (male rabbits; twice a day for one week) | Grown fur length Test side a', Average (male rabbits; twice a day, two week) | Difference b, Average (male rabbits; twice a day, two week)
180 µM | CCCCC/C=C\C/C=C\CCCCCCCC(=O)O [Linoleic acid, linoleic acid] | – | – | 9.98^*2 | 0.43
300 µM | CCCCCCCCCCCCCCCC(=O)O [Palmitic acid, palmitic acid] | 6.056^*2 | 0.958 | – | –
180 µM | CCCCCC/C=C\CCCCCCCC(=O)O [Palmitoleic acid, palmitoleic acid] | 8.051^*2 | 0.862 | – | –
1100 µM | CCC=CC=CC=CC=CCCCCCCCC(=O)O [Parinaric acid, parinaric acid] | 6.83^*2 | 0.60 | – | –
500 µM | CCCCCCCCCC(=O)O [n-Capric acid, n-capric acid] | 7.542^*2 | 0.557 | – | –
